Measurements published in ChEMBL document CHEMBL1131855, “Nonpeptidic SH2 inhibitors of the tyrosine kinase ZAP-70” (Bioorg Med Chem Lett, 1999).

How the values were obtained:
[1] = molecular target: Proto-oncogene tyrosine-protein kinase Src (Homo sapiens, UniProt P12931); experiment: Affinity for Src protein tyrosine kinase
[2] = molecular target: Tyrosine-protein kinase SYK (Homo sapiens, UniProt P43405); experiment: Affinity for Syk protein tyrosine kinase
[3] = molecular target: T1, Tyrosine-protein kinase ZAP-70 (Homo sapiens, UniProt P43403); experiment: Affinity for Zeta-chain (TCR) associated protein kinase 70 kDa (ZAP70)
T1 sequence (P43403 whole entry): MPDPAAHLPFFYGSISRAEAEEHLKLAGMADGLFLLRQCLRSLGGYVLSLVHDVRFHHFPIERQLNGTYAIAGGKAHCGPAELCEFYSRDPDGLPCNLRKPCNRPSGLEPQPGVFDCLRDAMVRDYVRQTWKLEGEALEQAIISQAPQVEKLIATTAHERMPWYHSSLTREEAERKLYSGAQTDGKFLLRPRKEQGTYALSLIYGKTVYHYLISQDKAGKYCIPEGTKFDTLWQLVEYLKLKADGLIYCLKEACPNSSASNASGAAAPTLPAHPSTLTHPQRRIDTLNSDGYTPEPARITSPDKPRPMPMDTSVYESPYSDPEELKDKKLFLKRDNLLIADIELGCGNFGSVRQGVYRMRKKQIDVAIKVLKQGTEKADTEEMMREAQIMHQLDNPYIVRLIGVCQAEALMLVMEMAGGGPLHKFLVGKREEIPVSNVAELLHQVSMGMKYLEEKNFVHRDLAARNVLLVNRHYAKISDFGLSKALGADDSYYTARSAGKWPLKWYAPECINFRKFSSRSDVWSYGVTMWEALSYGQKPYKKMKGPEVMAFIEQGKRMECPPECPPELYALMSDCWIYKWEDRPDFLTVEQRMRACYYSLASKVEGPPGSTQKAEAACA

Sequence of Proto-oncogene tyrosine-protein kinase Src (P12931 2-536 limits assumed): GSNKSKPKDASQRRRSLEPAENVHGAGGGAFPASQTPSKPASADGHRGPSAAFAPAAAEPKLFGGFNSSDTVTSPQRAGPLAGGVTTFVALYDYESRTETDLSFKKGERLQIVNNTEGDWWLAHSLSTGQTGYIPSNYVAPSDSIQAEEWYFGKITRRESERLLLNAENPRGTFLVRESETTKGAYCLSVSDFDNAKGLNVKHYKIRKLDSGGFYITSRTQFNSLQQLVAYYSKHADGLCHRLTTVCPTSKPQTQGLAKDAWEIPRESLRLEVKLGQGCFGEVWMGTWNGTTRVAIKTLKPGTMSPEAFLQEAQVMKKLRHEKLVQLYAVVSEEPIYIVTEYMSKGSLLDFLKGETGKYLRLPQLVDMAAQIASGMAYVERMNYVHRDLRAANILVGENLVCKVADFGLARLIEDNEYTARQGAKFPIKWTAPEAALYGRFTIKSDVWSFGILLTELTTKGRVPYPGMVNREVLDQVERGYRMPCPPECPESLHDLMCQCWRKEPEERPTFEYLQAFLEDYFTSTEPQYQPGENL

Row | IC50 [1] [µM] | IC50 [2] [µM] | IC50 [3] [µM] | Structure (SMILES)
1 | 210 |  |  | CC(=O)N[C@@H](Cc1ccc(OP(=O)(O)O)cc1)C(=O)N[C@@H](C)c1nc(Cc2ccc(Cl)c(Cl)c2)no1
2 | 205 | > 500 |  | C[C@H](NC(=O)[C@H](Cc1ccc(OP(=O)(O)O)cc1)CS(=O)(=O)C(C)(C)C)c1nc(Cc2ccc(C(F)(F)F)cc2)no1
3 | 54 | > 500 |  | O=C(O)C[C@@H](Cc1ccc(OP(=O)(O)O)cc1)C(=O)N[C@@H](CO)c1nc(Cc2ccc(Cl)c(Cl)c2)no1
4 | 72 |  |  | CC(=O)N[C@@H](Cc1ccc(OP(=O)(O)O)cc1)C(=O)N[C@@H](C)c1nc(Cc2ccc(C(F)(F)F)cc2)no1
5 | 53 | > 500 |  | C[C@H](NC(=O)[C@@H](CC(=O)O)Cc1ccc(OP(=O)(O)O)cc1)c1nc(Cc2ccc(Cl)c(Cl)c2)no1
6 | 81 | 434 |  | C[C@H](NC(=O)c1cc2cc(OP(=O)(O)O)ccc2[nH]1)c1nc(Cc2ccc(Cl)c(Cl)c2)no1
7 | 102 | > 500 |  | C[C@H](NC(=O)[C@@H](CC(=O)O)Cc1ccc(OP(=O)(O)O)cc1)c1nc(Cc2ccc(C(F)(F)F)cc2)no1
8 | 459 | > 500 | 198 | C[C@H](NC(=O)CCc1ccc(OP(=O)(O)O)cc1)c1nc(Cc2ccc(Cl)c(Cl)c2)no1
9 | 198 | 310 |  | C[C@H](NC(=O)Nc1cccc2cc(OP(=O)(O)O)ccc12)c1nc(Cc2ccc(Cl)c(Cl)c2)no1
